Reference: US20120201749A1, “NP-1 Antagonists and Their Therapeutic Use” (priority 2009, published 2012)

Molecular target: NP-1 (Homo sapiens, UniProt O14786)
Assay: Biotinylated-VEGF-A165 (bt-VEGF-A165) binding to NP-1
Details: for inhibition at 3 µM: 3 μM compound, read-out: Screen (% inhibition at 3 μM); for inhibition at 30 µM: 30 μM compound, read-out: Screen (% inhibition at 30 μM)
Experimental: Human prostate carcinoma DU145 cells were cultured in growth medium (RPMI 1640 containing 10% FBS and L-glutamine). DU145 cells were seeded at the density of 2×10^4 cells per well (96-well plates) in 0.1 ml growth medium and transfected with adenovirus vectors containing the full-length open-reading frame of human NP-1. The Ad.NP-1-transfected cells grew for 2 days prior to a binding assay.
Confluent Ad.NP-1-transfected cells in 96-well plates were washed twice with phosphate-buffered saline (PBS). The various concentrations of compounds diluted in binding medium (Dulbecco's modified Eagle's medium, 25 mM HEPES pH 7.3 containing 0.1% BSA) were added, followed by addition of 2 nM of bt-VEGF-A165. After 2 h of incubation at room temperature, the medium was aspirated and washed three times with PBS. The bound bt-VEGF-A165 to NP-1 was detected by streptavidin-horseradish peroxidase conjugates and the enzyme substrate, and measured using a Tecan Genios plate reader at A450 nm with a reference wavelength at A595 nm. Non-specific binding was determined in the presence of 100-fold excess unlabelled VEGF-A165.
The 96-well plates were pre-coated with NP1 protein at 3 μg/ml overnight at 4° C. On the following day, the plates were treated with blocking buffer (PBS containing 1% BSA) and washed three times with wash buffer (PBS containing 0.1% Tween-20). The various concentrations of compounds diluted in PBS containing 1% DMSO were added, followed by addition of 0.25 nM of bt-VEGF-A165. After 2 h of incubation at room temperature, the plates were washed three times with wash buffer. The bound bt-VEGF-A165 to NP-1 was detected by streptavidin-horseradish peroxidase conjugates and the enzyme substrate, and measured using a Tecan Genios plate reader at A450 nm with a reference wavelength at A595 nm. Nonspecific binding was determined in the absence of NP-1 coated wells of the plates.

Sequence of NP-1 (O14786 22-923): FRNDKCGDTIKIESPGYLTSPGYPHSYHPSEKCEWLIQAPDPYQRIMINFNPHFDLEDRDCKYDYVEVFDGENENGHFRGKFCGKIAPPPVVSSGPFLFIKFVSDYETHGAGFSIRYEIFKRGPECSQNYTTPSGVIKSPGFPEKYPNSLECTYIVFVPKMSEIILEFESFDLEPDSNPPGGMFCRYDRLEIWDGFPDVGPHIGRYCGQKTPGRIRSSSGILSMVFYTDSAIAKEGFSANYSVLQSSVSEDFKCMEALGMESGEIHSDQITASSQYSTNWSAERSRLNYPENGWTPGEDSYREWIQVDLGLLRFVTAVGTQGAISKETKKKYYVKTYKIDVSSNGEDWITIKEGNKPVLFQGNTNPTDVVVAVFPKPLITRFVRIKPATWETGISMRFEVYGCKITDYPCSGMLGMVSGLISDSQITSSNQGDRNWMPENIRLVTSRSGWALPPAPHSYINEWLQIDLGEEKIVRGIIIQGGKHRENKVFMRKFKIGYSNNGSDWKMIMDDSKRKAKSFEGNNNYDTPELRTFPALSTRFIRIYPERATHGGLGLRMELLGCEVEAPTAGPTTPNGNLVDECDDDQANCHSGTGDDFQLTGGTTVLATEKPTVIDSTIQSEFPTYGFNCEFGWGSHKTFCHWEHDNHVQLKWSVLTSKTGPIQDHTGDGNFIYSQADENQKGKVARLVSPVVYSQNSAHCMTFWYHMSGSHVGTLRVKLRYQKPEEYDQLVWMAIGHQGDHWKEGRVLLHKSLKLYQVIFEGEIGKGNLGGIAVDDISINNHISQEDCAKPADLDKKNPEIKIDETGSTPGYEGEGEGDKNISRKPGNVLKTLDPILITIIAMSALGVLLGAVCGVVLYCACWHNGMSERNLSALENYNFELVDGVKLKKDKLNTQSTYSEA

| Compound | IC50 | inhibition at 3 µM | inhibition at 30 µM |
| --- | --- | --- | --- |
| Cc1cc(CNCc2cccc(-c3cc4c(c(S(=O)(=O)Nc5ccsc5C(=O)N[C@@H](CCCNC(=N)N)C(=O)O)c3)OCC4)c2)no1 [Compound 48, (S)-5-Guanidino-2-({3-[5-(3-{[(5-methyl-isoxazol-3-ylmethyl)-amino]-methyl}-phenyl)-2,3-dihydro-benzofuran-7-sulfonylamino]-thiophene-2-carbonyl}-amino)-pentanoic acid] | 54 nM | 86% | 99% |
| N=C(N)NCCC[C@H](NC(=O)c1sccc1NS(=O)(=O)c1cccc(NCc2csc(N3CCOCC3)n2)c1)C(=O)O [Compound 71, (S)-5-guanidino-2-[(3-{3-[(2-morpholin-4-yl-thiazol-4-ylmethyl)-amino]-benzenesulfonylamino}-thiophene-2-carbonyl]-amino]-pentanoic acid] | – | 53% | 91% |
| N=C(N)NCCC[C@H](NC(=O)c1sccc1NS(=O)(=O)c1cc(-c2ccccc2CN2CCN(c3ccncc3)CC2)cc2c1OCC2)C(=O)O [Compound 15, (S)-5-Guanidino-2-[(3-{5-[2-(4-pyridin-4-yl-piperazin-1-ylmethyl)-phenyl]-2,3-dihydro-benzofuran-7-sulfonylamino}-thiophene-2-carbonyl)-amino]-pentanoic acid] | – | 62% | 97% |
| N=C(N)NCCC[C@H](NC(=O)c1sccc1NS(=O)(=O)c1cc(-c2ccccc2CNCc2ccc(N)nc2)cc2c1OCC2)C(=O)O [Compound 39, (S)-2-({3-[5-(2-{[(6-Amino-pyridin-3-ylmethyl)-amino]-methyl}-phenyl)-2,3-dihydro-benzofuran-7-sulfonylamino]-thiophene-2-carbonyl}-amino)-5-guanidino-pentanoic acid] | – | 61% | – |
| N=C(N)NCCC[C@H](NC(=O)c1sccc1NS(=O)(=O)c1cc(-c2cccc(CN3CCN(Cc4ccncc4)CC3)c2)cc2c1OCC2)C(=O)O [Compound 30, (S)-5-Guanidino-2-[(3-{5-[3-(4-pyridin-4-ylmethyl-piperazin-1-ylmethyl)-phenyl]-2,3-dihydro-benzofuran-7-sulfonylamino}-thiophene-2-carbonyl)-amino]-pentanoic acid] | 691 nM | 80% | 100% |
| N=C(N)NCCC[C@H](NC(=O)c1sccc1NS(=O)(=O)c1cc(-c2ccccc2CNCc2cc[nH]n2)cc2c1OCC2)C(=O)O [Compound 53, (S)-5-Guanidino-2-({3-[5-(2-{[(1H-pyrazol-3-ylmethyl)-amino]-methyl}-phenyl)-2,3-dihydro-benzofuran-7-sulfonylamino]-thiophene-2-carbonyl}-amino)-pentanoic acid] | – | 54% | – |
| N=C(N)NCCC[C@H](NC(=O)c1sccc1NS(=O)(=O)c1cc(-c2cccc(CN3CCC(CC(=O)O)CC3)c2)cc2c1OCC2)C(=O)O [Compound 4, (S)-2-[(3-{5-[3-(4-Carboxymethyl-piperidin-1-ylmethyl)-phenyl]-2,3-dihydro-benzofuran-7-sulfonylamino}-thiophene-2-carbonyl)-amino]-5-guanidino-pentanoic acid] | 72 nM | 80% | – |
| N=C(N)NCCC[C@H](NC(=O)c1sccc1NS(=O)(=O)c1cc(-c2cccc(CN3CCN(c4ccccn4)CC3)c2)cc2c1OCC2)C(=O)O [Compound 27, (S)-5-Guanidino-2-[(3-{5-[3-(4-pyridin-2-yl-piperazin-1-ylmethyl)-phenyl]-2,3-dihydro-benzofuran-7-sulfonylamino}-thiophene-2-carbonyl)-amino]-pentanoic acid] | 625 nM | 88% | 97% |
| CCN(Cc1ccncc1)c1nc(CNc2cccc(S(=O)(=O)Nc3ccsc3C(=O)N[C@@H](CCCNC(=N)N)C(=O)O)c2)cs1 [Compound 73, (S)-2-{[3-(3-{[2-(Ethyl-pyridin-4-ylmethyl-amino)-thiazol-4-ylmethyl]-amino}-benzenesulfonylamino)-thiophene-2-carbonyl]-amino}-5-guanidino-pentanoic acid] | – | 69% | – |
| N=C(N)NCCC[C@H](NC(=O)c1sccc1NS(=O)(=O)c1cc(-c2ccccc2CN2CCN(Cc3ccccn3)CC2)cc2c1OCC2)C(=O)O [Compound 16, (S)-5-Guanidino-2-[(3-{5-[2-(4-pyridin-2-ylmethyl-piperazin-1-ylmethyl)-phenyl]-2,3-dihydro-benzofuran-7-sulfonylamino}-thiophene-2-carbonyl)-amino]-pentanoic acid] | – | 64% | 95% |
| Cc1cc(CNc2nc(CNc3cccc(S(=O)(=O)Nc4ccsc4C(=O)N[C@@H](CCCNC(=N)N)C(=O)O)c3)cs2)no1 [Compound 67] | – | 44% | 90% |
| N#Cc1cccc(NC(=O)CNc2cccc(S(=O)(=O)Nc3ccsc3C(=O)N[C@@H](CCCNC(=N)N)C(=O)O)c2)c1 [Compound 70, (S)-2-{[3-(3-{[(3-Cyano-phenylcarbamoyl)-methyl]-amino}-benzenesulfonylamino)-thiophene-2-carbonyl]-amino}-5-guanidino-pentanoic acid] | – | 25% | 63% |
| N=C(N)NCCC[C@H](NC(=O)c1sccc1NS(=O)(=O)c1cc(-c2ccccc2CN2CCC(C(=O)O)CC2)cc2c1OCC2)C(=O)O [Compound 1, 1-(2-{7-[2-((S)-1-Carboxy-4-guanidino-butylcarbonyl)-thiophen-3-ylsulfamoyl]-2,3-dihydro-benzofuran-5-yl}-benzyl)-piperidine-4-carboxylic acid] | 7 nM | 100% | – |
| N=C(N)NCCC[C@H](NC(=O)c1sccc1NS(=O)(=O)c1cccc(NCc2csc(N3CCN(c4cccnc4)CC3)n2)c1)C(=O)O [Compound 62, (S)-5-guanidino-2-{[3-(3-{[2-(4-pyridin-3-yl-piperazin-1-yl)-thiazol-4-ylmethyl]-amino}-benzenesulfonylamino)-thiophene-2-carbonyl]-amino}-pentanoic acid] | – | 68% | 95% |
| N=C(N)NCCC[C@H](NC(=O)c1sccc1NS(=O)(=O)c1cc(-c2cccc(CN3CCC(N4CCOCC4)CC3)c2)cc2c1OCC2)C(=O)O [Compound 22, (S)-5-Guanidino-2-[(3-{5-[3-(4-morpholin-4-yl-piperidin-1-ylmethyl)-phenyl]-2,3-dihydro-benzofuran-7-sulfonylamino}-thiophene-2-carbonyl)-amino]-pentanoic acid] | – | 70% | 98% |
| N=C(N)NCCC[C@H](NC(=O)c1sccc1NS(=O)(=O)c1cc(-c2cccc(CN3CCN(c4ccncc4)CC3)c2)cc2c1OCC2)C(=O)O [Compound 28, (S)-5-Guanidino-2-[(3-{5-[3-(4-pyridin-4-yl-piperazin-1-ylmethyl)-phenyl]-2,3-dihydro-benzofuran-7-sulfonylamino}-thiophene-2-carbonyl)-amino]-pentanoic acid] | 216 nM | 96% | 100% |
| N=C(N)NCCC[C@H](NC(=O)c1sccc1NS(=O)(=O)c1cc(-c2ccccc2CNCc2ccccn2)cc2c1OCC2)C(=O)O [Compound 18, (S)-5-Guanidino-2-({3-[5-(2-{[(pyridin-2-ylmethyl)-amino]-methyl}-phenyl)-2,3-dihydro-benzofuran-7-sulfonylamino]-thiophene-2-carbonyl}-amino)-pentanoic acid] | – | 70% | 100% |
| N=C(N)NCCC[C@H](NC(=O)c1sccc1NS(=O)(=O)c1cccc(NCc2csc(N3CCC(N4CCOCC4)CC3)n2)c1)C(=O)O [Compound 60, (S)-5-guanidino-2-{[3-(3-{[2-(4-morpholin-4-yl-piperidin-1-yl)-thiazol-4-ylmethyl]-amino}-benzenesulfonylamino)-thiophene-2-carbonyl]-amino}-pentanoic acid] | 319 nM | 70% | 96% |
| N=C(N)NCCC[C@H](NC(=O)c1sccc1NS(=O)(=O)c1cc(-c2ccccc2CN2CCC(N)CC2)cc2c1OCC2)C(=O)O [Compound 21, (S)-2-[(3-{5-[2-(4-Amino-piperidin-1-ylmethyl)-phenyl]-2,3-dihydro-benzofuran-7-sulfonylamino}-thiophene-2-carbonyl)-amino]-5-guanidino-pentanoic acid] | – | 73% | – |
| N=C(N)NCCC[C@H](NC(=O)c1sccc1NS(=O)(=O)c1cc(-c2cccc(CNCc3cn[nH]c3)c2)cc2c1OCC2)C(=O)O [Compound 51, (S)-5-Guanidino-2-({3-[5-(3-{[(1H-pyrazol-4-ylmethyl)-amino]-methyl}-phenyl)-2,3-dihydro-benzofuran-7-sulfonylamino]-thiophene-2-carbonyl}-amino)-pentanoic acid] | 740 nM | 94% | – |
